Data published in PubChem BioAssay (NCI).
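Values below derive from 48-hour exposures of cells grown in 96-well plates, with endpoints linearly interpolated between the two concentrations bracketing the appropriate inhibition level. TGI: concentration producing complete growth inhibition.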

Columns and labels:
Assay in all cases: NCI-60 cell line screen, 48 h
NCI-H226 lung = tested on: NCI-H226 lung
M19-MEL melanoma = tested on: M19-MEL melanoma
UACC-257 melanoma = tested on: UACC-257 melanoma
DLD-1 colon = tested on: DLD-1 colon
SK-MEL-2 melanoma = tested on: SK-MEL-2 melanoma
A549 NSCLC = tested on: A549 NSCLC
RXF 393 renal = tested on: RXF 393 renal
HOP-62 NSCLC = tested on: HOP-62 NSCLC
KM12 colon = tested on: KM12 colon

In the case of `CCOC(=O)C1Cc2ccc3c4c(ccc(c24)C1)CC(C(=O)OCC)C3`, the TGI (NCI-H226 lung) is reported as > 100 µM, the TGI (M19-MEL melanoma) is reported as > 100 µM and the TGI (UACC-257 melanoma) is reported as > 100 µM. For the same molecule, the TGI (DLD-1 colon) was > 100 µM, the TGI (SK-MEL-2 melanoma) was > 100 µM and the TGI (A549 NSCLC) was > 100 µM. For the same molecule, the TGI (RXF 393 renal) was > 100 µM, the TGI (HOP-62 NSCLC) was > 100 µM and the TGI (KM12 colon) was > 100 µM.

For `COC(=O)C(=O)C(CC(=O)Nc1ccc(C)cc1)C(=O)OC` (centres undefined), the TGI (NCI-H226 lung) was > 100 µM, the TGI (M19-MEL melanoma) was > 100 µM and the TGI (UACC-257 melanoma) was > 100 µM. For the same molecule, the TGI (DLD-1 colon) was > 100 µM, the TGI (SK-MEL-2 melanoma) was > 100 µM and the TGI (A549 NSCLC) was > 100 µM. The TGI (RXF 393 renal) was > 100 µM, the TGI (HOP-62 NSCLC) was > 100 µM and the TGI (KM12 colon) was > 100 µM.

`COc1ccc(O)c(C(=O)CCC(=O)O)c1` was tested, and the TGI (NCI-H226 lung) was > 100 µM, the TGI (M19-MEL melanoma) was > 100 µM and the TGI (UACC-257 melanoma) was 29 µM. The TGI (DLD-1 colon) was > 100 µM, the TGI (SK-MEL-2 melanoma) was > 100 µM and the TGI (A549 NSCLC) was > 100 µM. For the same molecule, the TGI (RXF 393 renal) was > 100 µM, the TGI (HOP-62 NSCLC) was > 10 µM and the TGI (KM12 colon) was > 100 µM.

`CC1CC2(S(=O)(=O)c3ccccc3)ON1CC2S(=O)(=O)c1ccccc1` (centres undefined) was tested, and the TGI (NCI-H226 lung) was > 100 µM, the TGI (M19-MEL melanoma) was > 100 µM and the TGI (UACC-257 melanoma) was > 100 µM. For the same molecule, the TGI (DLD-1 colon) was > 100 µM, the TGI (SK-MEL-2 melanoma) was > 100 µM and the TGI (A549 NSCLC) was > 100 µM. For the same molecule, the TGI (RXF 393 renal) was > 100 µM, the TGI (HOP-62 NSCLC) was > 100 µM and the TGI (KM12 colon) was > 100 µM.

For `COc1cc2c(c3c1c(=O)c1ccccc1n3C)C=CC(C)(C)O2`, the TGI (NCI-H226 lung) was > 100 µM, the TGI (M19-MEL melanoma) was > 100 µM and the TGI (UACC-257 melanoma) was > 100 µM. For the same molecule, the TGI (DLD-1 colon) was > 100 µM, the TGI (SK-MEL-2 melanoma) was > 100 µM and the TGI (A549 NSCLC) was > 100 µM. The TGI (RXF 393 renal) was 89 µM, the TGI (HOP-62 NSCLC) was > 100 µM and the TGI (KM12 colon) was > 100 µM.

With `O=C1CCC2(c3ccccc3)Nc3ccccc3N12` (centres undefined) the TGI (NCI-H226 lung) was > 100 µM, the TGI (M19-MEL melanoma) was > 100 µM and the TGI (UACC-257 melanoma) was > 100 µM. The TGI (DLD-1 colon) was > 100 µM, the TGI (SK-MEL-2 melanoma) was > 100 µM and the TGI (A549 NSCLC) was > 100 µM. For the same molecule, the TGI (RXF 393 renal) was > 100 µM, the TGI (HOP-62 NSCLC) was > 100 µM and the TGI (KM12 colon) was > 100 µM.

In the case of `CN/N=C(/c1nc2ccc([N+](=O)[O-])cc2[nH]c1=O)C(O)c1ccc(C(O)/C(=N\NC)c2nc3ccc([N+](=O)[O-])cc3[nH]c2=O)cc1` (centres undefined), the TGI (NCI-H226 lung) is reported as > 100 µM, the TGI (M19-MEL melanoma) is reported as > 100 µM and the TGI (UACC-257 melanoma) is reported as > 100 µM. For the same molecule, the TGI (DLD-1 colon) was > 100 µM, the TGI (SK-MEL-2 melanoma) was > 100 µM and the TGI (A549 NSCLC) was > 100 µM. For the same molecule, the TGI (RXF 393 renal) was > 100 µM, the TGI (HOP-62 NSCLC) was > 100 µM and the TGI (KM12 colon) was > 100 µM.

`N=c1c2ccccc2sc2nc3ccccc3n12` was tested, and the TGI (NCI-H226 lung) was > 100 µM, the TGI (M19-MEL melanoma) was > 100 µM and the TGI (UACC-257 melanoma) was > 100 µM. For the same molecule, the TGI (DLD-1 colon) was > 100 µM, the TGI (SK-MEL-2 melanoma) was > 100 µM and the TGI (A549 NSCLC) was > 100 µM. For the same molecule, the TGI (RXF 393 renal) was > 100 µM, the TGI (HOP-62 NSCLC) was > 100 µM and the TGI (KM12 colon) was > 100 µM.

With `COc1ccc(/C=C2\CCC(CCN(C)C)(C3=CCCC3)C2=O)cc1` (centres undefined) the TGI (NCI-H226 lung) was 38.5 µM, the TGI (M19-MEL melanoma) was 28.4 µM and the TGI (UACC-257 melanoma) was 30.8 µM. The TGI (DLD-1 colon) was 79.2 µM, the TGI (SK-MEL-2 melanoma) was 32.9 µM and the TGI (A549 NSCLC) was 42.9 µM. It also gave a TGI (RXF 393 renal) of 22.7 µM, a TGI (HOP-62 NSCLC) of 36 µM and a TGI (KM12 colon) of 32.4 µM.

In the case of `CCCCCCC(O)CC[C@H]1CCC[C@@H](C)N1` (some centres undefined), the TGI (NCI-H226 lung) is reported as > 100 µM, the TGI (M19-MEL melanoma) is reported as > 31.6 µM and the TGI (UACC-257 melanoma) is reported as < 10 µM. For the same molecule, the TGI (DLD-1 colon) was > 100 µM, the TGI (SK-MEL-2 melanoma) was < 10 µM and the TGI (A549 NSCLC) was > 100 µM. The TGI (RXF 393 renal) was > 100 µM, the TGI (HOP-62 NSCLC) was > 31.6 µM and the TGI (KM12 colon) was < 10 µM.

`COC/N=C(\NC#N)NCOC` was tested, and the TGI (NCI-H226 lung) was > 100 µM, the TGI (M19-MEL melanoma) was > 100 µM and the TGI (UACC-257 melanoma) was > 100 µM. The TGI (DLD-1 colon) was > 100 µM, the TGI (SK-MEL-2 melanoma) was > 100 µM and the TGI (A549 NSCLC) was > 100 µM. For the same molecule, the TGI (RXF 393 renal) was > 63.3 µM, the TGI (HOP-62 NSCLC) was > 100 µM and the TGI (KM12 colon) was > 100 µM.
